Test results taken from patent US9994594B2, “Inhibitors of arginase and their therapeutic applications” (MARS, INCORPORATED, priority 2010, dated 2018).
pIC50: −log10 of the molar value. Where a name gives a salt, the structure may show the parent alone. Read-outs that look alike come from different tables or passages of the source.

Experiments:
human arginase I (ARG I) = biological target: T1, human arginase I (ARG I) (Homo sapiens, UniProt P05089); experiment: Inhibition of arginase I, spectrophotometric urea assay at 530 nm; assay type: biochemical; conditions: read-out: Potency (ARG I)
T1 sequence (P05089 1-322): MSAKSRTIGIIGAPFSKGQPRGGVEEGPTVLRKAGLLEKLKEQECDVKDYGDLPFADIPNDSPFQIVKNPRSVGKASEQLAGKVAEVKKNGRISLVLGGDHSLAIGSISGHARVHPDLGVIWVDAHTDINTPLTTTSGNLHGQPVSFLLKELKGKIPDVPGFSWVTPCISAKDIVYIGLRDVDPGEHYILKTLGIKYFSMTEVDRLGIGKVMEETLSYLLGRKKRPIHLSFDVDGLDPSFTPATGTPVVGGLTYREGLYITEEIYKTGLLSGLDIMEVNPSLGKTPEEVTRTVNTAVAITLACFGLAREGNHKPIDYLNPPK
Summary of the method: (§1)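 IC50 was derived by regression of OD530 normalized to uninhibited-enzyme controls against log concentration. Urea from 60-min, 37 °C turnover of L-arginine with manganese sulfate was detected after acid o-phthaldialdehyde/primaquine quench and 10 min colour development. Arginase I and II came from 100 ng/ml stocks in pH 7.4 phosphate with ovalbumin.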

arginase II (ARG II) = biological target: T2, arginase II (ARG II) (Homo sapiens, UniProt P78540); experiment: Inhibition of arginase II, spectrophotometric urea assay at 530 nm; assay type: biochemical
T2 sequence (P78540 23-354): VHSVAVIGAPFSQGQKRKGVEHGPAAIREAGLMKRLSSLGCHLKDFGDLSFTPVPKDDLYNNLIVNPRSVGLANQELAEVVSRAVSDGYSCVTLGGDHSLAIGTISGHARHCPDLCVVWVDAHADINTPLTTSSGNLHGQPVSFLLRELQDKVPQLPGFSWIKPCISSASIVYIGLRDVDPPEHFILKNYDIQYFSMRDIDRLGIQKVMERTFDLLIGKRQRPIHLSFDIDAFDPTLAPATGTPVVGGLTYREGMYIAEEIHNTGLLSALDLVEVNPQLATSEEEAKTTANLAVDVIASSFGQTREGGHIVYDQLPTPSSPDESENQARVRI
Summary of the method: as §1

[1] = Formula II compounds, Table 2-A
[2] = Formula II compounds, Table 2-A, read-out: Potency (ARG)

Structure (SMILES)	pIC50 (human arginase I (ARG I); [1])	pIC50 (arginase II (ARG II); [2])	pIC50 (human arginase I (ARG I); Formula I compounds, Table 2)	pIC50 (arginase II (ARG II); Formula I compounds, Table 2, read-out: Potency (ARG II))
NC(CCCCB(O)O)(C(=O)O)[C@H]1C[C@@H](NCc2ccc(-c3ccccc3)cc2)C1 (stereo partly drawn) [Example 77-A, cis-2-amino-2-(3-(biphenyl-4-ylmethylamino)cyclobutyl)-6-boronohexanoic acid dihydrochloride]	6.60 to 10.00	6.60 to 10.00	–	–
NC(CCCCB(O)O)(C(=O)O)[C@H]1C[C@@H](NCc2cccc3cccnc23)C1 (stereo partly drawn) [Example 79-A, cis-2-amino-6-borono-2-(3-(quinolin-8-ylmethylamino)cyclobutyl)hexanoic acid dihydrochloride]	6.60 to 10.00	6.60 to 10.00	–	–
NC(CCCCB(O)O)(C(=O)O)[C@H]1C[C@@H](N)C1 (stereo partly drawn) [Example 81-A, cis-2-amino-2-(3-aminocyclobutyl)-6-boronohexanoic acid dihydrochloride]	6.60 to 10.00	6.60 to 10.00	–	–
CC(C)CN[C@H]1C[C@@H](C(N)(CCCCB(O)O)C(=O)O)C1 (stereo partly drawn) [Example 83-A, cis-2-amino-6-borono-2-(3-(isobutylamino)cyclobutyl)hexanoic acid dihydrochloride]	6.60 to 10.00	6.60 to 10.00	–	–
NC(CCCCB(O)O)(C(=O)O)C1CCC(c2ccc(Cl)cc2)CC1 (centres unmarked) [Example 86-A, 2-amino-6-borono-2-(4-(4-chlorophenyl)cyclohexyl)hexanoic acid hydrochloride]	< 5.30	< 5.30	–	–
NC(CCCCB(O)O)(C(=O)O)C1CCNCC1 (centres unmarked) [Example 88-A, 2-amino-6-borono-2-(piperidin-4-yl)hexanoic acid dihydrochloride]	6.00 to 6.60	6.00 to 6.60	–	–
NC(CCCCB(O)O)(C(=O)O)C1CCN(Cc2ccc3c(c2)OCO3)CC1 (centres unmarked) [Example 90-A, 2-amino-2-(1-(benzo[d][1,3]dioxol-5-ylmethyl)piperidin-4-yl)-6-boronohexanoic acid dihydrochloride]	6.60 to 10.00	6.60 to 10.00	–	–
NC(CCCCB(O)O)(C(=O)O)C1CCN(Cc2ccc(C(F)(F)F)cc2)CC1 (centres unmarked) [Example 93-A, 2-amino-6-borono-2-(1-(4-(trifluoromethyl)benzyl)piperidin-4-yl)hexanoic acid]	6.00 to 6.60	6.00 to 6.60	–	–
NC(CCCCB(O)O)(C(=O)O)C1CCN(Cc2ccc(Cl)c(Cl)c2)CC1 (centres unmarked) [Example 95-A, 2-amino-6-borono-2-(1-(3,4-dichlorobenzyl)piperidin-4-yl)hexanoic acid dihydrochloride]	6.60 to 10.00	6.00 to 6.60	–	–
COc1cc(F)c(CN2CCC(C(N)(CCCCB(O)O)C(=O)O)CC2)cc1OC (centres unmarked) [Example 96-A, 2-amino-6-borono-2-(1-(2-fluoro-4,5-dimethoxybenzyl)piperidin-4-yl)hexanoic acid dihydrochloride]	6.60 to 10.00	6.00 to 6.60	–	–
NC(CCCCB(O)O)(C(=O)O)C1CCN(Cc2ccc3ccccc3c2)CC1 (centres unmarked) [Example 99-A, 2-amino-6-borono-2-(1-(naphthalen-2-ylmethyl)piperidin-4-yl)hexanoic acid dihydrochloride]	6.60 to 10.00	6.60 to 10.00	–	–
NC(CCCCB(O)O)(C(=O)O)C1CCN(Cc2cccc(OC(F)(F)F)c2)CC1 (centres unmarked) [Example 103-A, 2-amino-6-borono-2-(1-(3-(trifluoromethoxy)benzyl)piperidin-4-yl)hexanoic acid dihydrochloride]	6.60 to 10.00	6.60 to 10.00	–	–
NC(CCCCB(O)O)(C(=O)O)C1CCN(Cc2csc3ccccc23)CC1 (centres unmarked) [Example 104-A, 2-amino-2-(1-(benzo[b]thiophen-3-ylmethyl)piperidin-4-yl)-6-boronohexanoic acid dihydrochloride]	6.60 to 10.00	6.60 to 10.00	–	–

The remaining lines, values ahead:

pIC50 (human arginase I (ARG I); [1])	pIC50 (arginase II (ARG II); [2])	pIC50 (human arginase I (ARG I); Formula I compounds, Table 2)	pIC50 (arginase II (ARG II); Formula I compounds, Table 2, read-out: Potency (ARG II))	Structure (SMILES)
6.60 to 10.00	6.60 to 10.00	–	–	NC(CCCCB(O)O)(C(=O)O)[C@H]1C[C@@H](NCc2cc3c(cc2Cl)OCO3)C1 (stereo partly drawn) [Example 78-A, cis-2-amino-6-borono-2-(3-((6-chlorobenzo[d][1,3]dioxol-5-yl)methylamino)cyclobutyl)hexanoic acid dihydrochloride]
6.60 to 10.00	6.60 to 10.00	–	–	NC(CCCCB(O)O)(C(=O)O)[C@H]1C[C@@H](NCc2cccc3ccccc23)C1 (stereo partly drawn) [Example 80-A, cis-2-amino-6-borono-2-(3-(naphthalen-1-ylmethylamino)cyclobutyl)hexanoic acid dihydrochloride]
6.60 to 10.00	6.60 to 10.00	–	–	NC(CCCCB(O)O)(C(=O)O)[C@H]1C[C@@H](NCc2ccc(Cl)cc2)C1 (stereo partly drawn) [Example 82-A, cis-2-amino-6-borono-2-(3-(4-chlorobenzylamino)cyclobutyl)hexanoic acid dihydrochloride]
< 5.30	< 5.30	–	–	NC(CCCCB(O)O)(C(=O)O)[C@H]1CC[C@@H](C(=O)c2ccc(Cl)cc2)CC1 (stereo partly drawn) [Example 84-A, cis-2-Amino-6-borono-2-[4-(4-Chlorobenzoyl)-cyclohexyl]hexanoic acid hydrochloride]
5.70 to 6.00	6.00 to 6.60	–	–	NC(CCCCB(O)O)(C(=O)O)C1CCN(c2ccc(Cl)cn2)CC1 (centres unmarked) [Example 85-A, 2-amino-6-borono-2-(1-(5-chloropyridin-2-yl)piperidin-4-yl)hexanoic acid hydrochloride]
6.60 to 10.00	6.60 to 10.00	–	–	NC(CCCCB(O)O)(C(=O)O)C1CCN(Cc2ccccc2)CC1 (centres unmarked) [Example 87-A, 2-amino-2-(1-benzylpiperidin-4-yl)-6-boronohexanoic acid dihydrochloride]
6.60 to 10.00	6.60 to 10.00	–	–	NC(CCCCB(O)O)(C(=O)O)C1CCN(Cc2ccc(Cl)cc2)CC1 (centres unmarked) [Example 89-A, 2-amino-6-borono-2-(1-(4-chlorobenzyl)piperidin-4-yl)hexanoic acid dihydrochloride]
6.60 to 10.00	6.00 to 6.60	–	–	NC(CCCCB(O)O)(C(=O)O)C1CCN(Cc2cc3c(cc2Cl)OCO3)CC1 (centres unmarked) [Example 91-A, 2-amino-6-borono-2-(1-((6-chlorobenzo[d][1,3]dioxol-5-yl)methyl)piperidin-4-yl)hexanoic acid dihydrochloride]
6.60 to 10.00	6.60 to 10.00	–	–	CC(C)CCN1CCC(C(N)(CCCCB(O)O)C(=O)O)CC1 (centres unmarked) [Example 92-A, 2-amino-6-borono-2-(1-isopentylpiperidin-4-yl)hexanoic acid dihydrochloride]
6.60 to 10.00	6.00 to 6.60	–	–	NC(CCCCB(O)O)(C(=O)O)C1CCN(Cc2ccc(F)cc2)CC1 (centres unmarked) [Example 94-A, 2-amino-6-borono-2-(1-(4-fluorobenzyl)piperidin-4-yl)hexanoic acid dihydrochloride]
6.00 to 6.60	6.00 to 6.60	–	–	NC(CCCCB(O)O)(C(=O)O)C1CCN(Cc2ccc(Cl)cc2Cl)CC1 (centres unmarked) [Example 97-A, 2-amino-6-borono-2-(1-(2,4-dichlorobenzyl)piperidin-4-yl)hexanoic acid dihydrochloride]
6.60 to 10.00	6.60 to 10.00	–	–	NC(CCCCB(O)O)(C(=O)O)C1CCN(Cc2cccc3ccccc23)CC1 (centres unmarked) [Example 98-A, 2-amino-6-borono-2-(1-(naphthalen-1-ylmethyl)piperidin-4-yl)hexanoic acid dihydrochloride]
6.60 to 10.00	6.60 to 10.00	–	–	NC(CCCCB(O)O)(C(=O)O)C1CCN(Cc2ccc(OC(F)(F)F)cc2)CC1 (centres unmarked) [Example 100-A, 2-amino-6-borono-2-(1-(4-(trifluoromethoxy)benzyl)piperidin-4-yl)hexanoic acid dihydrochloride]
6.00 to 6.60	6.60 to 10.00	–	–	CCCN1CCC(C(N)(CCCCB(O)O)C(=O)O)CC1 (centres unmarked) [Example 101-A, 2-amino-6-borono-2-(1-propylpiperidin-4-yl)hexanoic acid dihydrochloride]
6.60 to 10.00	6.60 to 10.00	–	–	NC(CCCCB(O)O)(C(=O)O)C1CCN(CCCc2ccccc2)CC1 (centres unmarked) [Example 102-A, 2-amino-6-borono-2-(1-(3-phenylpropyl)piperidin-4-yl)hexanoic acid dihydrochloride]
6.00 to 6.60	6.00 to 6.60	–	–	NC(CCCCB(O)O)(C(=O)O)C1CCN(Cc2cccc(C(=O)O)c2)CC1 (centres unmarked) [Example 105-A, 3-((4-(1-amino-5-borono-1-carboxypentyl)piperidin-1-yl)methyl)benzoic acid dihydrochloride]
6.00 to 6.60	6.00 to 6.60	–	–	N#Cc1cccc(CN2CCC(C(N)(CCCCB(O)O)C(=O)O)CC2)c1 (centres unmarked) [Example 106-A, 2-amino-6-borono-2-(1-(3-cyanobenzyl)piperidin-4-yl)hexanoic acid dihydrochloride]
–	–	6.00 to 6.60	6.00 to 6.60	N[C@](CCCCB(O)O)(CCN1Cc2ccccc2C[C@H]1CO)C(=O)O [compound 1, (R)-2-amino-6-borono-2-(2-((S)-3-(hydroxymethyl)-3,4-dihydroisoquinolin-2(1H)-yl)ethyl)hexanoic acid dihydrochloride]
